The source of these data is PubChem BioAssay AID2009 (NMMLSC, 2009).

This assay deals with Cdc42 activated mutant (human), GST fusion. The assay can be described thus: constitutively active Cdc42 fluorescent GTP binding inhibition – biochemical, oxadiazole analogs, multiplex bead flow cytometry, Ki, SAR follow-up (AID 2009). To be noted: Bead-based flow cytometry, Bodipy-FL-GTP binding; for Ki: measured here: Ki calculated from EC50.

Calls of active or inactive are those of the source.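 The calls were made as follows: active = EC50 of 30 microM or lower and a span of response of at least a set limit; inactive = the rest.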

The EC50 is the concentration that produces a half-maximal response. The Ki is the equilibrium dissociation constant of an inhibitor or competing ligand from its target.

In the case of `Cc1ccc(C)c(N2CCN(C(=O)CCc3nc(-c4ccccc4Br)no3)CC2)c1`, the concentration for a half-maximal effect (EC50) was 1190 nM and the Ki is 180 nM. `COc1ccc(-c2noc(CCC(=O)N3CCN(c4ccc(OC)cc4)CC3)n2)cc1`: the concentration giving a half-maximal response (EC50) was 700 nM and the inhibition constant (Ki) is 110 nM. For the molecule `COc1ccc(-c2noc(CCC(=O)N3CCN(c4ccccc4F)CC3)n2)cc1`, the EC50 was 1070 nM and the Ki is 170 nM. Taken in the same sequence, the figures for `COc1ccc(-c2cccc(CCC(=O)N3CCN(c4cc(C)ccc4C)CC3)c2)cc1` were 4050 nM and 630 nM. On to `COc1ccc(-c2ccc(CCC(=O)N3CCN(c4cc(C)ccc4C)CC3)o2)cc1`, for which the EC50 is > 30000 nM (inactive). On to `COc1ccccc1-c1noc(CCC(=O)N2CCN(c3cc(C)ccc3C)CC2)n1`, for which the EC50 is 4910 nM and the Ki is 760 nM. The corresponding values for `COc1ccc(-c2cc(CCC(=O)N3CCN(c4cc(C)ccc4C)CC3)on2)cc1` are 1450 nM and 220 nM.

For the molecule `COc1ccc(-c2noc(CCC(=O)N3CCN(c4ccccc4C(F)(F)F)CC3)n2)cc1`, the EC50 was 2000 nM and the inhibition constant (Ki) is 310 nM. Taken in the same sequence, the figures for `Cc1ccc(C)c(N2CCN(C(=O)CCc3nc(-c4ccc(F)cc4)no3)CC2)c1` were 665 nM and 100 nM.

Regarding `COc1cccc(-c2noc(CCC(=O)N3CCN(c4cc(C)ccc4C)CC3)n2)c1`, the 50% effective concentration (EC50) was 3680 nM and the Ki was 570 nM. Turning to `COc1ccc(-c2noc(CCC(=O)N3CCN(c4cccc(C)c4C)CC3)n2)cc1`, the concentration giving a half-maximal response (EC50) was 1380 nM and the inhibition constant (Ki) is 210 nM. Taken in the same sequence, the figures for `COc1ccc(-c2noc(CCC(=O)N3CCN(c4ccccc4OC)CC3)n2)cc1` were 3080 nM and 480 nM. The corresponding values for `Cc1ccc(C)c(N2CCN(C(=O)CCc3nc(-c4ccccc4F)no3)CC2)c1` are 1510 nM and 230 nM.

Consider `COc1ccc(-c2noc(CCC(=O)N3CCN(c4cccc(F)c4)CC3)n2)cc1`, for which the EC50 result was “inactive” and the inhibitory constant (Ki) is 170 nM. Taken in the same sequence, the figures for `COc1ccc(-c2noc(CCC(=O)N3CCN(c4ccc(Cl)cc4)CC3)n2)cc1` were “inactive” and 20 nM.

Take `COc1ccc(-c2noc(CCC(=O)N3CCN(c4ccc(C(F)(F)F)cc4)CC3)n2)cc1`: the EC50 is > 30000 nM (inactive). With `COc1ccc(-c2noc(CCC(=O)N3CCN(c4cc(C)ccc4C)CC3)n2)cc1`, the concentration for a half-maximal effect (EC50) is 2280 nM and the Ki is 350 nM. The corresponding values for `COc1ccc(-c2ccc(CCC(=O)N3CCN(c4cc(C)ccc4C)CC3)s2)cc1` are 2940 nM and 460 nM.

As to `Cc1ccc(C)c(N2CCN(C(=O)CCc3nc(-c4ccccc4)no3)CC2)c1`, the EC50 is 621 nM and the inhibition constant Ki is 100 nM. The corresponding values for `COc1ccc(-c2noc(CCC(=O)N3CCN(c4ccc(C)cc4)CC3)n2)cc1` are “inactive” and 190 nM. The corresponding values for `COc1ccc(-c2noc(CCC(=O)N3CCN(c4ccccc4Cl)CC3)n2)cc1` are 2030 nM and 310 nM. The corresponding values for `COc1ccc(-c2noc(CC(=O)N3CCN(c4cc(C)ccc4C)CC3)n2)cc1` are “inactive” and 1770 nM. As for `COc1ccc(-c2coc(CCC(=O)N3CCN(c4cc(C)ccc4C)CC3)n2)cc1`, the EC50 was 1680 nM and the inhibitory constant (Ki) was 260 nM.

`COc1ccc(-c2noc(CCC(=O)N3CCN(c4ccccc4)CC3)n2)cc1`: the EC50 entry was “inactive” and the Ki is 110 nM.

For the molecule `COc1ccc(-c2noc(CCC(=O)N3CCN(c4cccc(C(F)(F)F)c4)CC3)n2)cc1`, the EC50 was > 30000 nM (inactive). Turning to `COc1ccc(-c2noc(CCC(=O)N3CCN(c4cccc(C)c4)CC3)n2)cc1`, the EC50 is 2340 nM and the Ki was 360 nM.

As for `Cc1ccc(C)c(N2CCN(C(=O)CCc3nc(-c4ccc(Br)cc4)no3)CC2)c1`, the EC50 is 2660 nM and the Ki was 410 nM. With `COc1ccc(-c2noc(CCC(=O)N3CCN(c4cccc(Br)c4)CC3)n2)cc1`, the EC50 is > 30000 nM (inactive). Regarding `COc1ccc(-c2noc(CCC(=O)N3CCN(c4ccccc4Br)CC3)n2)cc1`, the 50% effective concentration (EC50) is 1430 nM and the Ki was 220 nM.

For `COc1ccc(-c2noc(CCC(=O)N3CCN(c4cccc(OC)c4)CC3)n2)cc1`, the EC50 entry is “inactive” and the inhibition constant (Ki) is 760 nM.

`Cc1ccc(C)c(N2CCN(C(=O)CCc3nc(-c4cccc(Br)c4)no3)CC2)c1`: the EC50 was 2340 nM and the Ki is 360 nM. `COc1ccc(-c2noc(CCC(=O)N3CCN(c4ccc(Br)cc4)CC3)n2)cc1`: the EC50 is > 30000 nM (inactive). With `Cc1ccc(C)c(N2CCN(C(=O)CCc3nc(-c4ccc(N(C)C)cc4)no3)CC2)c1`, the half-maximal effective concentration (EC50) is 1660 nM and the inhibitory constant (Ki) is 260 nM.

For the molecule `Cc1ccc(C)c(N2CCN(C(=O)CCc3nc(-c4cccc(F)c4)no3)CC2)c1`, the EC50 is 1840 nM and the Ki was 280 nM.

As to `COc1ccc(-c2noc(CCC(=O)N3CCN(c4ccccc4C)CC3)n2)cc1`, the half-maximal effective concentration (EC50) is 1050 nM and the inhibition constant (Ki) is 160 nM. On to `COc1ccc(-c2cc(CCC(=O)N3CCN(c4cc(C)ccc4C)CC3)[nH]n2)cc1`, for which the EC50 was > 30000 nM (inactive). Regarding `COc1ccc(-c2noc(CCC(=O)N3CCN(c4cccc(Cl)c4)CC3)n2)cc1`, the EC50 is 7130 nM and the Ki is 1100 nM. Taken in the same sequence, the figures for `Cc1ccc(C)c(N2CCN(C(=O)CCc3nc(-c4ccccc4Cl)no3)CC2)c1` were 951 nM and 150 nM. With `COc1ccc(-c2ccc(CCC(=O)N3CCN(c4cc(C)ccc4C)CC3)[nH]2)cc1`, the EC50 was > 30000 nM (inactive). Regarding `Cc1ccc(C)c(N2CCN(C(=O)CCc3nc(-c4ccccc4C)no3)CC2)c1`, the 50% effective concentration (EC50) is 1540 nM and the Ki is 240 nM.

As to `COc1ccc(-c2noc(CCCCC(=O)N3CCN(c4cc(C)ccc4C)CC3)n2)cc1`, the EC50 is 17400 nM and the Ki is 2690 nM. Consider `COc1ccc(-c2noc(CCC(=O)N3CCC(c4cc(C)ccc4C)CC3)n2)cc1`, for which the EC50 was 1630 nM and the inhibition constant Ki was 250 nM. Taken in the same sequence, the figures for `Cc1ccc(C)c(N2CCN(C(=O)CCc3nc(-c4cccc(C(F)(F)F)c4)no3)CC2)c1` were 2670 nM and 410 nM.

In the case of `COc1ccc(-c2noc(CCC(=O)N3CCN(c4ccc(F)cc4)CC3)n2)cc1`, the EC50 entry is “inactive” and the Ki is 140 nM. On to `COc1ccc(-c2noc(CCCC(=O)N3CCN(c4cc(C)ccc4C)CC3)n2)cc1`, for which the EC50 is 5160 nM and the Ki was 800 nM. The corresponding values for `Cc1ccc(C)c(N2CCN(C(=O)CCc3nc(-c4ccccc4C(F)(F)F)no3)CC2)c1` are 1690 nM and 260 nM. The corresponding values for `Cc1ccc(C)c(N2CCN(C(=O)CCc3nc(-c4cccc(Cl)c4)no3)CC2)c1` are 3910 nM and 600 nM.

In the case of `Cc1ccc(C)c(N2CCN(C(=O)CCc3nc(-c4ccc(C(F)(F)F)cc4)no3)CC2)c1`, the half-maximal effective concentration (EC50) was 4980 nM and the Ki was 770 nM. Turning to `Cc1ccc(-c2noc(CCC(=O)N3CCN(c4cc(C)ccc4C)CC3)n2)cc1`, the EC50 was 3030 nM and the inhibition constant Ki is 470 nM.

For the molecule `Cc1cccc(-c2noc(CCC(=O)N3CCN(c4cc(C)ccc4C)CC3)n2)c1`, the EC50 is 1850 nM and the inhibition constant Ki is 290 nM. Taken in the same sequence, the figures for `Cc1ccc(C)c(N2CCN(C(=O)CCc3nc(-c4ccc(Cl)cc4)no3)CC2)c1` were 1660 nM and 260 nM.
